Molecules are shown by their SMILES. Like-named read-outs stand apart in the source and are kept apart here. Where only a bound is given, the exact number is not on record here.

The source of these data is patent US20040121965A1, “Method of treating resistant tumors” (Wyeth Holdings Corporation, priority 2002, published 2004).

For one experiment, the system named is KB-3-1. The experiment is described as follows: Cell survival assay (SRB), KB-3-1. The conditions noted are these: Homo sapiens, KB 3-1, KB-3-1 cells (paclitaxel-sensitive parent); read-out: In vitro IC50 (nM) KB-3-1. The experiment is classed as cell-based, human. The procedure, abridged:
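SRB protein stain as survival read-out; IC50 = conc. giving 50% growth inhibition. Compound serially diluted, duplicate wells, 3 d exposure; TCA fixation (10% final, 1 h, 4 °C), 0.04% SRB/1% acetic acid 10 min, solubilised in 10 mM Trizma Base, A read.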

In the next experiment the test system is KB-8-5 (MDR1+). The experiment is described as follows: Cell survival assay (SRB), KB-8-5 (MDR1+). As to conditions: for IC50: Homo sapiens, MDR1, read-out: In vitro IC50 (nM) KB85.
The next experiment concerns KB-V1 (MDR1++). Briefly: Cell survival assay (SRB), KB-V1 (MDR1++). The conditions noted are these: for IC50: Homo sapiens.
Where [1] appears, read: read-out: In vitro IC50 (nM) KBV1.

In general, IC50 refers to the concentration that inhibits the measured activity by half. As for `CN[C@H](C(=O)N[C@H](C(=O)N(C)[C@H](/C=C(\C)C(=O)O)C(C)C)C(C)(C)SCc1ccc(OC)cc1)C(C)(C)c1ccc(OC)cc1` [Example 83, N,O,β,β-tetramethyl-L-tyrosyl-N^1-[(1S,2E)-3-carboxy-1-isopropyl-2-butenyl]-3-[(4-methoxybenzyl)sulfanyl]-N^1-methyl-L-valinamide], the figures for the IC50 with KB-3-1, with KB-8-5 (MDR1+) and in the experiment on KB-V1 (MDR1++) (setting [1]) were 15.8 nM, 43.7 nM and 2090 nM, respectively. Further, in the experiment with KB-8-5 (MDR1+), the “Ratio KB85/KB” value turned out to be 2.8. Further, the “Ratio KBV1/KB” value in the experiment on KB-V1 (MDR1++) is recorded as 132.2.

On to `CCCCCCCCOC(=O)/C(C)=C/[C@H](C(C)C)N(C)C(=O)[C@@H](NC(=O)[C@@H](NC)C(C)(C)c1ccccc1)C(C)(C)C` [Example 116, N,β,β-trimethyl-L-phenylalanyl-N^1-[(1S,2E)-1-isopropyl-3-methyl-4-(octyloxy)-4-oxobut-2-enyl]-N^1,3-dimethyl-L-valinamide], for which the half-inhibitory concentration (IC50) in the experiment with KB-3-1 was 150 nM; with KB-8-5 (MDR1+) it was 1630 nM; with KB-V1 (MDR1++) (read-out: In vitro IC50 KBV1), over 3000 nM. In the experiment with KB-8-5 (MDR1+), the “Ratio KB85/KB” value came to 10.9.

Take `CN[C@H](C(=O)N[C@H](C(=O)N(C)[C@H](/C=C(\C)C(=O)O)C(C)C)C(C)(C)C)C(C)(C)Cc1ccccc1` [Example 48, N,3-Dimethyl-4-phenyl-L-valyl-N^1-[(1S,2E)-3-carboxy-1-isopropyl-2-butenyl]-N^1,3-dimethyl-L-valinamide]: the IC50 in the experiment on KB-3-1 is 2.7 nM; in the experiment with KB-8-5 (MDR1+), 6 nM; in the experiment with KB-V1 (MDR1++) (setting [1]), 219 nM. For the same compound, in the experiment with KB-8-5 (MDR1+), the “Ratio KB85/KB” value came to 2.2. Moreover, the “Ratio KBV1/KB” value with KB-V1 (MDR1++) is listed as 81.0.

Take `CN[C@@H](C(=O)N[C@H](C(=O)N(C)[C@H](/C=C(\C)C(=O)O)C(C)C)C(C)(C)C)C(C)(C)c1cccc(C)c1` [Example 9, N,β,β,3-Tetramethyl-D-phenylalanyl-N^1-[(1S,2E)-3-carboxy-1-isopropyl-2-butenyl]-N^1,3-dimethyl-L-valinamide]: the IC50 in the experiment with KB-3-1 amounted to 7.9 nM; with KB-8-5 (MDR1+) it was 19.9 nM; in the experiment on KB-V1 (MDR1++) (setting [1]), 447 nM. Besides, the “Ratio KB85/KB” value in the experiment with KB-8-5 (MDR1+) was 2.5. Besides, the “Ratio KBV1/KB” value in the experiment on KB-V1 (MDR1++) was 56.5.

As for `CN[C@H](C(=O)N[C@H](C(=O)N(C)[C@H](/C=C(\C)C(=O)O)C(C)C)C(C)(C)C)C(C)(C)c1csc2ccccc12` [Example 26, 3-(1-Benzothien-3-yl)-N-methylvalyl-N^1-[(1S,2E)-3-carboxy-1-isopropyl-2-butenyl]-N^1,3-dimethyl-L-valinamide], the results for the IC50 in the experiment on KB-3-1, in the experiment on KB-8-5 (MDR1+) and in the experiment on KB-V1 (MDR1++) (setting [1]) were 4.5 nM, 9.1 nM and 417 nM, respectively. The “Ratio KB85/KB” value in the experiment with KB-8-5 (MDR1+) is recorded as 2.0. The “Ratio KBV1/KB” value with KB-V1 (MDR1++) turned out to be 92.6.

As to `CCOC(=O)/C(C)=C/[C@H](C(C)C)N(C)C(=O)[C@@H](NC(=O)[C@@H](NC)C(C)(C)c1ccccc1)C(C)(C)SC` [Example 79, Ethyl (E,4S)-2,5-dimethyl-4-{methyl[(2R)-3-methyl-2-{[(2S)-3-methyl-2-(methylamino)-3-phenylbutanoyl]amino}-3-(methylsulfanyl)butanoyl]amino}-2-hexenoate], the results for the IC50 in the experiment with KB-3-1, in the experiment on KB-8-5 (MDR1+) and with KB-V1 (MDR1++) (setting [1]) were 449 nM, 1420 nM and 2440 nM, respectively. Further, in the experiment on KB-8-5 (MDR1+), the “Ratio KB85/KB” value is 3.2. The “Ratio KBV1/KB” value with KB-V1 (MDR1++) is 5.4.

With `CCCCCC(C)(C)[C@@H](NC)C(=O)N[C@H](C(=O)N(C)[C@H](/C=C(\C)C(=O)O)C(C)C)C(C)(C)C` [Example 51, (2E,4S)-4-[((2S)-2-{[(2R)-3,3-dimethyl-2-(methylamino)octanoyl]amino}-3,3-dimethylbutanoyl)(methyl)amino]-2,5-dimethyl-2-hexenoic Acid], the IC50 was 224 nM with KB-3-1, 363 nM in the experiment on KB-8-5 (MDR1+) and at least 3000 nM with KB-V1 (MDR1++) (setting [1]). For the same compound, the “Ratio KB85/KB” value with KB-8-5 (MDR1+) came to 1.6. Further, in the experiment on KB-V1 (MDR1++), the “Ratio KBV1/KB” value is reported as 13.4.
